From patent US4425432A (priority 1981, dated 1984)
Read-outs that look alike come from different tables or passages of the source.

Columns and labels:
Marburg strain = assay: microbe, parasite or virus in culture; assay type: cell-based, Butyribacterium methylotrophicum
Clostridium pasteurianum = assay: microbe, parasite or virus in culture; assay type: cell-based
[1] = [Butyribacterium] methylotrophicum, 192 h, read-out: % Inhibition of growth, Marburg strain
[2] = Clostridium pasteurianum, 1 h, read-out: % Inhibition of growth, Clostridium pasteurianum

Row | SMILES | inhibition at 100 µg/mL (Marburg strain; [1]) [%] | inhibition at 100 µg/mL (Clostridium pasteurianum; [2]) [%] | sensitivity of the Marburg strain (B. methylotrophicum) to antibiotics and inhibitors, in words (Marburg strain) | other results
1 | [H]/N=C(/N)N[C@H]1[C@H](O)[C@@H](O)[C@H](O[C@@H]2O[C@@H](C)[C@](O)(C=O)[C@H]2O[C@@H]2O[C@@H](CO)[C@H](O)[C@@H](O)[C@@H]2NC)[C@@H](N/C(N)=N\[H])[C@@H]1O [Streptomycin] | 80 | 100 |  | 
2 | O=O [Oxygen] |  |  | effective inhibitor of growth | % Inhibition of growth, Marburg strain (Marburg strain): 100%; % Inhibition of growth, Clostridium pasteurianum (Clostridium pasteurianum): 100%
3 | CN(C)C1C(=O)C(C(N)=O)=C(O)C2(O)C(=O)C3=C(O)c4c(O)cccc4C(C)(O)C3CC12 (stereo not shown) [Tetracycline] | 100 | 100 |  | 
4 | [N-]=[N+]=[N-] [Sodium azide] |  |  | noticeably more tolerant | inhibition at 50 µg/mL (Marburg strain; [1]): 0%; inhibition at 250 µg/mL (Marburg strain; [1]): 0%; inhibition at 50 µg/mL (Clostridium pasteurianum; [2]): 100%; inhibition at 250 µg/mL (Clostridium pasteurianum; [2]): 93%
5 | [Cl-].[Na+] [Sodium chloride] |  |  | noticeably more tolerant | % Inhibition of growth, Marburg strain (Marburg strain; 2%): 0%; % Inhibition of growth, Clostridium pasteurianum (Clostridium pasteurianum; 2%): 73%
6 | O=C(N[C@H](CO)[C@H](O)c1ccc([N+](=O)[O-])cc1)C(Cl)Cl [Chloramphenicol] | 100 | 100 |  | 
7 | CC1(C)S[C@@H]2[C@H](NC(=O)Cc3ccccc3)C(=O)N2[C@H]1C(=O)O [Penicillin] | 100 | 100 |  | 
